From patent publication US11149292B2, “Processes for the preparation of (R)-2-(7-(4-cyclopentyl-3-(trifluoromethyl)benzyloxy)-1,2,3,4-tetrahydrocyclopenta[B]indol-3-yl)acetic acid and salts thereof” (Arena Pharmaceuticals, Inc., priority 2010, dated 2021)

How the values were obtained:
S1P1 receptor = S1P1 receptor (Homo sapiens (Human), UniProt P21453); experiment: HTRF assay for direct cAMP measurement in recombinant CHO-K1 cells stably transfected with S1P1; assay type: cell-based
Source text: CHO-K1 cells were obtained from ATCC® (Manassas, Va.; Catalog #CCL-61). […] The HTRF® assay has been used to determine EC50 values for S1P1 receptor agonists.
HTRF® assay kit was purchased from Cisbio-US, Inc. (Bedford, Mass.; Catalog #62AM4PEC). The HTRF® assay supported by the kit is a competitive immunoassay between endogenous cAMP produced by the CHO-K1 cells and tracer cAMP labeled with the dye d2. The tracer binding is visualized by a monoclonal anti-cAMP antibody labeled with Cryptate. The specific signal (i.e., fluorescence resonance energy transfer, FRET) is inversely proportional to the concentration of unlabeled cAMP in the standard or sample.
The fluorescence ratio (665 nm/620 nm) of the standards (0.17 to 712 nM cAMP) included in the assay was calculated and used to generate a cAMP standard curve according to the kit manufacturer's instructions. The fluorescence ratio of the samples (test compound or compound buffer) was calculated and used to deduce respective cAMP concentrations by reference to the cAMP standard curve.
The HTRF® assay was carried out using a two-step protocol essentially according to the kit manufacturer's instructions, in […] total volume per well in 384-well plate format (ProxiPlates; PerkinElmer, Fremont, Calif.; catalog #6008280). […] The plate was then further incubated at room temperature for 1 hour, after which the assay plate was read. […]

Female C57BL/6 mice = experiment: MOG-induced experimental autoimmune encephalomyelitis (EAE) in mice; assay type: in vivo, mouse; conditions: 0.3, 1 and 3 mg/kg orally once a day from day 3 until day 21; FIG. 4
Female Lewis rats = experiment: Collagen-induced arthritis rat model; assay type: in vivo; conditions: 0.3, 1 and 3 mg/kg p.o., q.d., day 0 to day 16; FIG. 3
Description: Female Lewis rats were used in this study. Acclimated animals were anesthetized with isoflurane and given the first collagen injection (day 0). On day 6, they were anesthetized again for the second collagen injection. Collagen was prepared by making a 4 mg/mL solution in 0.01 N acetic acid. Equal volumes of collagen and incomplete Freund's adjuvant were emulsified by hand mixing until a bead of this material held its form when placed in water. Each animal received 300 μL of the mixture each time, spread over 3 subcutaneous sites on the back. Treatment (p.o., q.d., 5 mL/kg dosing volume) began on day 0 and continued through day 16 with vehicle or compounds given at 24 h intervals. Rats were weighed on days 0, 3, 6 and 9 through 17 and caliper measurements of the ankles taken on days 9 through 17.

Male Sprague-Dawley rats [1] = experiment: Cardiac telemetry in the rat (exemplary bradycardia assay); assay type: in vivo; conditions: oral, vehicle PEG400; heart rate measured over a 120 min period
Description: Male Sprague-Dawley rats (250-300 g at time of surgery) were implanted by Charles River Laboratories (Wilmington, Mass.) with cardiac transmitting devices (Data Sciences PhysioTel C50-PXT) into the peritoneal space, with a pressure-sensing catheter inserted into the descending aorta. Rats are allowed at least one week to recover. Rats were housed in individual cages and maintained in a humidity-controlled (30-70%) and temperature-controlled (20-22° C.) facility on a 12 h:12 h light/dark cycle (lights on at 7:00 am) with free access to food (Harlan-Teklad, Orange, Calif., Rodent Diet 8604) and water. Rats were allowed one week of habituation to the animal facility before testing.
The implanted transmitting devices transmitted continuous measurements of blood pressure (systolic, diastolic, mean arterial, pulse), heart rate, body temperature, and motor activity in freely moving conscious animals. […] Telemetry recording occurred over a 21-h period, starting at noon and continuing until 9:00 am the following day. […]
By way of illustration and not limitation, the rats were administered vehicle (PEG 400) and (R)-2-(7-(4-cyclopentyl-3-(trifluoromethyl)benzyloxy)-1,2,3,4-tetrahydrocyclopenta[b]indol-3-yl)acetic acid and heart rate was then measured over a 120 min period.

Male Sprague-Dawley rats [2] = experiment: Rat Peripheral Lymphocyte Lowering (PLL) assay; assay type: in vivo; conditions: 1.00 mg/kg oral dose; blood at 5 hours post-dose; FIG. 2
Description: Male Sprague-Dawley rats (7 weeks of age at start of study) (Charles River Laboratories) were housed two per cage and maintained in a humidity-controlled (40-60%) and temperature-controlled (68-72° F.) facility on a 12 h:12 h light/dark cycle (lights on at 6:30 am) with free access to food (Harlan Teklad, Orange, Calif., Rodent Diet 8604) and water. Rats were allowed one week of habituation to the animal facility before testing. […] Peripheral blood samples were collected at 5 hours post-dose. Blood was collected via indwelling catheter. A complete cell count (CBC), including lymphocyte count, was obtained using a CELL-DYN® 3700 (Abbott Laboratories, Abbott Park, Ill.) instrument. Results are presented in FIG. 2, in which peripheral blood lymphocyte (PBL) count is shown for the 5 hour group.

Male BALB/c mice = experiment: Mouse Peripheral Lymphocyte Lowering (PLL) assay; assay type: in vivo; conditions: 1.00 mg/kg oral dose; blood at 5 hours post-dose; FIG. 1
Description: Male BALB/c mice (Charles River Laboratories, Wilmington, Mass.) were housed four per cage and maintained in a humidity-controlled (40 to 60%) and temperature-controlled (68 to 72° F.) facility on a 12 h:12 h light/dark cycle (lights on at 6:30 am) with free access to food (Harlan Teklad, Orange, Calif., Rodent Diet 8604) and water. Mice were allowed one week of habituation to the animal facility before testing. PLL Assay: […] Peripheral blood samples were collected at 5 hours post-dose. The mice were anesthetized with isoflurane and blood was collected via cardiac puncture. A complete cell count (CBC), including lymphocyte count, was obtained using a CELL-DYN® 3700 (Abbott Laboratories, Abbott Park, Ill.) instrument. Results are presented in FIG. 1, in which peripheral blood lymphocyte (PBL) count is shown for the 5 hour group.

S1P1 receptor, sequence (P21453 whole entry): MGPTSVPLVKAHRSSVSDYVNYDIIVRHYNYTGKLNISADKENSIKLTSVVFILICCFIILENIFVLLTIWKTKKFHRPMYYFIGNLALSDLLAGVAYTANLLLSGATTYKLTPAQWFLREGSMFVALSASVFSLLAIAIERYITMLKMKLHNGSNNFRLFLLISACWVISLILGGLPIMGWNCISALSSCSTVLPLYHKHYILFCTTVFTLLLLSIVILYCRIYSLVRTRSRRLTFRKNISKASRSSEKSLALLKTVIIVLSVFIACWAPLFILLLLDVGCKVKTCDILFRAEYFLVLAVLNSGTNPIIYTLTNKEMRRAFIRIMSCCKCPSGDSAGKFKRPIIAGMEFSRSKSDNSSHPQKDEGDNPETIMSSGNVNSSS

O=C(O)C[C@H]1CCc2c1[nH]c1ccc(OCc3ccc(C4CCCC4)c(C(F)(F)F)c3)cc21 [(R)-2-(7-(4-cyclopentyl-3-(trifluoromethyl)benzyloxy)-1,2,3,4-tetrahydrocyclopenta[b]indol-3-yl)acetic acid]
S1P1 receptor agonism (decrease of cAMP concentration) (S1P1 receptor): agonist of the S1P1 receptor
reduction of severity of disease symptoms (clinical score) in EAE (Female C57BL/6 mice): exhibited activity in the mouse EAE assay
reduction of mean ankle diameter (Female Lewis rats): exhibited activity for reducing mean ankle diameter
reduction of heart rate (bradycardia) vs vehicle (Male Sprague-Dawley rats [1]): no or substantially no reduction of heart rate
peripheral blood lymphocyte (PBL) count lowering vs vehicle (Male Sprague-Dawley rats [2]): exhibited activity for inducing PBL lowering (lymphopenia)
peripheral blood lymphocyte (PBL) count lowering vs vehicle (Male BALB/c mice): exhibited activity for inducing PBL lowering (lymphopenia)
